Assay results from PubChem BioAssay AID330 (DTP/NCI, 2004).
Where “and” joins values, the source holds several entries; their conditions need not be identical. Identical values can stand only once. Inconclusive results and toxic doses are left out.

Tested on: P388 leukemia ip, CD2F1 mice, survival T/C
Test: NCI In Vivo Anticancer Drug Screen. Data for tumor model P388 Leukemia (intraperitoneal) in CD2F1 (CDF1) mice
Settings: endpoint: median survival time, higher = longer survival
Outline: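 Mice carrying the transplanted tumor received test compound or vehicle. Survival was recorded in each group, and the value is the treated-group measurement divided by that of the vehicle-treated control group.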

[1] = dose: 12.5 mg/kg/injection, schedule: Q01DX009 (ip), vehicle: saline with Tween-80
[2] = dose: 25.0 mg/kg/injection, schedule: Q01DX009 (ip), vehicle: saline with Tween-80
[3] = dose: 50.0 mg/kg/injection, schedule: Q01DX009 (ip), vehicle: saline with Tween-80
[4] = dose: 50.0 mg/kg/injection, schedule: Q01DX009 (ip), vehicle: saline
[5] = dose: 25.0 mg/kg/injection, schedule: Q01DX009 (ip), vehicle: water
[6] = dose: 50.0 mg/kg/injection, schedule: Q01DX009 (ip), vehicle: water

Which T/C [1] does the source give for `COC(=O)C(F)C(Br)C(=O)OC` (stereo not given) here?
The T/C was 111 % of control and 103 % of control.

And the T/C [2]?
Its T/C is 112 % of control and 105 % of control.

What about the T/C [3] of the same compound?
The T/C was 123 % of control and 114 % of control and 115 % of control.

For `N#Cc1ccc(CC(O)(c2ccccc2)c2ccccc2)cc1`, which T/C [4] is on record?
The T/C was 99 % of control.

And the T/C (dose: 100.0 mg/kg/injection, schedule: Q01DX009 (ip), vehicle: saline)?
Its T/C is 101 % of control.

What about the T/C (dose: 200.0 mg/kg/injection, schedule: Q01DX009 (ip), vehicle: saline) of the same compound?
The T/C was 95 % of control.

What about the T/C (dose: 400.0 mg/kg/injection, schedule: Q01DX009 (ip), vehicle: saline) of the same compound?
Its T/C is 87 % of control.

`Cc1c([O-])[n+]2cccc3ccn(c1=O)c32` was tested. Which T/C (dose: 60.0 mg/kg/injection, schedule: Q01DX005 (ip), vehicle: Klucel (hydroxypropylcellulose) (HPC)) did it give?
Its T/C is 97 % of control.

What about the T/C (dose: 120.0 mg/kg/injection, schedule: Q01DX005 (ip), vehicle: Klucel (hydroxypropylcellulose) (HPC)) of the same compound?
Its T/C is 100 % of control.

And the T/C (dose: 240.0 mg/kg/injection, schedule: Q01DX005 (ip), vehicle: Klucel (hydroxypropylcellulose) (HPC))?
Its T/C is 94 % of control.

With `O=c1ccc2nc3ccccc3sc-2c1` as the compound, how does the T/C [1] read?
The T/C was 90 % of control.

What about the T/C [2] of the same compound?
The T/C was 104 % of control.

And the T/C [3]?
Its T/C is 109 % of control.

What does the source list for `C/C(=C\C(=O)c1ccccc1)Nc1ccccc1Cl`?
T/C (dose: 12.5 mg/kg/injection, schedule: Q01DX009 (ip), vehicle: saline): 100 % of control; T/C (dose: 25.0 mg/kg/injection, schedule: Q01DX009 (ip), vehicle: saline): 102 % of control; T/C [4]: 89 % of control

`CNC(=O)O[C@H]1C(=O)O[C@@H]2C[C@H]3C(C)=C(O)C(=O)C[C@]3(C)[C@H]3[C@@H](O)[C@H](O)[C@@]4(C(=O)OC)OC[C@]32[C@@H]14` was tested. Which T/C (dose: 1.0 mg/kg/injection, schedule: Q01DX005 (ip), vehicle: Klucel (hydroxypropylcellulose) (HPC)) did it give?
Its T/C is 105 % of control.

What about the T/C (dose: 2.0 mg/kg/injection, schedule: Q01DX005 (ip), vehicle: Klucel (hydroxypropylcellulose) (HPC)) of the same compound?
The T/C was 105 % of control.

What about the T/C (dose: 4.0 mg/kg/injection, schedule: Q01DX005 (ip), vehicle: Klucel (hydroxypropylcellulose) (HPC)) of the same compound?
Its T/C is 102 % of control and 108 % of control.

What about the T/C (dose: 8.0 mg/kg/injection, schedule: Q01DX005 (ip), vehicle: Klucel (hydroxypropylcellulose) (HPC)) of the same compound?
The T/C was 102 % of control.

And the T/C (dose: 16.0 mg/kg/injection, schedule: Q01DX005 (ip), vehicle: Klucel (hydroxypropylcellulose) (HPC))?
Its T/C is 101 % of control.

What about the T/C (dose: 125.0 micrograms/kg/injection, schedule: Q01DX005 (ip), vehicle: Klucel (hydroxypropylcellulose) (HPC)) of the same compound?
The T/C was 103 % of control.

What about the T/C (dose: 250.0 micrograms/kg/injection, schedule: Q01DX005 (ip), vehicle: Klucel (hydroxypropylcellulose) (HPC)) of the same compound?
Its T/C is 95 % of control.

What about the T/C (dose: 500.0 micrograms/kg/injection, schedule: Q01DX005 (ip), vehicle: Klucel (hydroxypropylcellulose) (HPC)) of the same compound?
The T/C was 95 % of control.

What about the T/C (dose: 1000.0 micrograms/kg/injection, schedule: Q01DX005 (ip), vehicle: Klucel (hydroxypropylcellulose) (HPC)) of the same compound?
Its T/C is 99 % of control.

What does the source list for `CC12C(=O)NC(c3ccccc3)(c3ccccc31)C1C(=O)N(C(N)=O)C(=O)C12` (stereo not given)?
T/C (dose: 60.0 mg/kg/injection, schedule: Q01DX005 (ip), vehicle: saline with Tween-80): 94 % of control; T/C (dose: 120.0 mg/kg/injection, schedule: Q01DX005 (ip), vehicle: saline with Tween-80): 89 % of control; T/C (dose: 240.0 mg/kg/injection, schedule: Q01DX005 (ip), vehicle: saline with Tween-80): 93 % of control

How did the T/C (dose: 5.0 mg/kg/injection, schedule: Q01DX005 (ip), vehicle: other) turn out when `CC(=O)Nc1cc2c(=O)[nH]cnc2c([N+](=O)[O-])c1N(C)[N+](=O)[O-]` was run?
Its T/C is 101 % of control.

What about the T/C (dose: 10.0 mg/kg/injection, schedule: Q01DX005 (ip), vehicle: other) of the same compound?
Its T/C is 117 % of control.

What about the T/C (dose: 20.0 mg/kg/injection, schedule: Q01DX005 (ip), vehicle: other) of the same compound?
The T/C was 109 % of control.

What about the T/C (dose: 40.0 mg/kg/injection, schedule: Q01DX005 (ip), vehicle: other) of the same compound?
Its T/C is 102 % of control.

How did the T/C (dose: 60.0 mg/kg/injection, schedule: Q01DX005 (ip), vehicle: saline) turn out when `CC1(C)CC(=O)N(CN2CCOCC2)C(=O)C1` was run?
Its T/C is 100 % of control.

And the T/C (dose: 120.0 mg/kg/injection, schedule: Q01DX005 (ip), vehicle: saline)?
The T/C was 100 % of control.

What about the T/C (dose: 240.0 mg/kg/injection, schedule: Q01DX005 (ip), vehicle: saline) of the same compound?
The T/C was 110 % of control.

How did the T/C (dose: 12.5 mg/kg/injection, schedule: Q01DX009 (ip), vehicle: water) turn out when `C=CCCn1ccnc1[N+](=O)[O-]` was run?
Its T/C is 94 % of control.

And the T/C [5]?
Its T/C is 93 % of control.

And the T/C [6]?
The T/C was 100 % of control.

Which T/C (dose: 12.5 mg/kg/injection, schedule: Q01DX009 (ip), vehicle: distilled water + Tween-80) does the source give for `CN=NNc1ccc(C)cc1` here?
Its T/C is 96 % of control and 97 % of control.

What about the T/C (dose: 25.0 mg/kg/injection, schedule: Q01DX009 (ip), vehicle: distilled water + Tween-80) of the same compound?
The T/C was 100 % of control.

What about the T/C (dose: 50.0 mg/kg/injection, schedule: Q01DX009 (ip), vehicle: distilled water + Tween-80) of the same compound?
Its T/C is 100 % of control and 124 % of control.

And the T/C (dose: 100.0 mg/kg/injection, schedule: Q01DX009 (ip), vehicle: distilled water + Tween-80)?
Its T/C is 123 % of control.

Which T/C (dose: 100.0 mg/kg/injection, schedule: Q04DX002 (ip), vehicle: Klucel (hydroxypropylcellulose) (HPC)) does the source give for `C=Cc1nc(=O)[nH]c(=O)[nH]1` here?
Its T/C is 97 % of control.

And the T/C (dose: 100.0 mg/kg/injection, schedule: Q04DX002 (ip), vehicle: saline)?
The T/C was 101 % of control.

And the T/C (dose: 200.0 mg/kg/injection, schedule: Q04DX002 (ip), vehicle: Klucel (hydroxypropylcellulose) (HPC))?
Its T/C is 91 % of control.

What about the T/C (dose: 200.0 mg/kg/injection, schedule: Q04DX002 (ip), vehicle: saline) of the same compound?
Its T/C is 108 % of control.

And the T/C (dose: 400.0 mg/kg/injection, schedule: Q04DX002 (ip), vehicle: Klucel (hydroxypropylcellulose) (HPC))?
The T/C was 97 % of control.

And the T/C (dose: 400.0 mg/kg/injection, schedule: Q04DX002 (ip), vehicle: saline)?
Its T/C is 98 % of control.

Which results are given for `Cn1cnc([N+](=O)[O-])c1[Se]c1nc(N)nc2nc[nH]c12`?
T/C (dose: 3.12 mg/kg/injection, schedule: Q01DX009 (ip), vehicle: dextrose): 117 % of control; T/C (dose: 3.12 mg/kg/injection, schedule: Q01DX009 (ip), vehicle: water): 104 % of control; T/C (dose: 6.25 mg/kg/injection, schedule: Q01DX009 (ip), vehicle: dextrose): 112 % of control; T/C (dose: 6.25 mg/kg/injection, schedule: Q01DX009 (ip), vehicle: water): 116 % of control; T/C (dose: 25.0 mg/kg/injection, schedule: Q01DX009 (ip), vehicle: dextrose): 161 % of control; T/C [5]: 106 % of control; T/C (dose: 50.0 mg/kg/injection, schedule: Q01DX009 (ip), vehicle: dextrose): 123 % of control; T/C [6]: 116 % of control

Which T/C (dose: 25.0 mg/kg/injection, schedule: Q01DX001 (ip), vehicle: saline) does the source give for `CC(C)(C)c1ccc(OCc2cnc[nH]2)cc1` here?
The T/C was 102 % of control.

What about the T/C (dose: 50.0 mg/kg/injection, schedule: Q01DX001 (ip), vehicle: saline) of the same compound?
The T/C was 101 % of control.

What about the T/C (dose: 100.0 mg/kg/injection, schedule: Q01DX001 (ip), vehicle: saline) of the same compound?
The T/C was 110 % of control.

How did the T/C (dose: 6.25 mg/kg/injection, schedule: Q01DX009 (ip), vehicle: Klucel (hydroxypropylcellulose) (HPC)) turn out when `NS(=O)(=O)c1ccc(Nc2c3ccccc3nc3cc(Cl)ccc23)cc1` was run?
Its T/C is 98 % of control.

What about the T/C (dose: 12.5 mg/kg/injection, schedule: Q01DX009 (ip), vehicle: Klucel (hydroxypropylcellulose) (HPC)) of the same compound?
Its T/C is 98 % of control.

And the T/C (dose: 25.0 mg/kg/injection, schedule: Q01DX009 (ip), vehicle: Klucel (hydroxypropylcellulose) (HPC))?
The T/C was 90 % of control.

What about the T/C (dose: 100.0 mg/kg/injection, schedule: Q01DX009 (ip), vehicle: Klucel (hydroxypropylcellulose) (HPC)) of the same compound?
The T/C was 86 % of control.

For `CCN=NNc1ccc(C)cc1`, which T/C [2] is on record?
Its T/C is 110 % of control.

`CC(/C=N/Nc1ccccc1)=N\N=c1/scc(-c2ccc(C)cc2)n1C1CCCCC1` was tested. Which T/C (dose: 50.0 mg/kg/injection, schedule: Q01DX005 (ip), vehicle: saline with Tween-80) did it give?
The T/C was 94 % of control.

And the T/C (dose: 100.0 mg/kg/injection, schedule: Q01DX005 (ip), vehicle: saline with Tween-80)?
The T/C was 96 % of control.

And the T/C (dose: 200.0 mg/kg/injection, schedule: Q01DX005 (ip), vehicle: saline with Tween-80)?
Its T/C is 89 % of control.

With `COc1ccc(-c2cc(-c3ccc(OC)cc3OC)[n+](C)c(-c3ccc(OC)cc3OC)c2)cc1` as the compound, how does the T/C (dose: 0.78 mg/kg/injection, schedule: Q01DX009 (ip), vehicle: saline with Tween-80) read?
Its T/C is 124 % of control.

What about the T/C (dose: 1.56 mg/kg/injection, schedule: Q01DX009 (ip), vehicle: saline with Tween-80) of the same compound?
Its T/C is 124 % of control.

Which results are given for `Nc1ccn(C2CC(O)C(CO)O2)c(=O)n1` (stereo not given)?
T/C (dose: 4.6 mg/kg/injection, schedule: Q01DX009 (ip), vehicle: water): 95 % of control; T/C (dose: 9.38 mg/kg/injection, schedule: Q01DX009 (ip), vehicle: water): 100 % of control; T/C (dose: 18.75 mg/kg/injection, schedule: Q01DX009 (ip), vehicle: water): 105 % of control and 87 % of control; T/C (dose: 37.5 mg/kg/injection, schedule: Q01DX009 (ip), vehicle: water): 112 % of control; T/C (dose: 75.0 mg/kg/injection, schedule: Q01DX009 (ip), vehicle: water): 96 % of control; T/C (dose: 150.0 mg/kg/injection, schedule: Q01DX009 (ip), vehicle: water): 103 % of control
